IC50, Ki and pKa data for three compounds are collected here from publication PMC5125662, “The Open Form Inducer Approach for Structure-Based Drug Design” (PLoS ONE, 2016).

The target in data set [1] is T1, TcDHODH (Trypanosoma cruzi, UniProt Q4D3W2).
T1 construct: made in house
T1 sequence (Q4D3W2 1-314): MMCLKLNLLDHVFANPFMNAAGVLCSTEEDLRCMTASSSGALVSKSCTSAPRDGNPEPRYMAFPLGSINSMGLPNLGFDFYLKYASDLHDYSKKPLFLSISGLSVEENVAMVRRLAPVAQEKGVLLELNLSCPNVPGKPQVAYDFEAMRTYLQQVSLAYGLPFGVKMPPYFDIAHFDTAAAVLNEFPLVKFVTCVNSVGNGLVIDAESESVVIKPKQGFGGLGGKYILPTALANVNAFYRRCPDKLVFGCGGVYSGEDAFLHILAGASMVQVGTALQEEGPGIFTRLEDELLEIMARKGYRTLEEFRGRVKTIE
Briefly: biochemical. The note with it: for IC50: 500 μM L-dihydroorotate, 2 mM fumarate, pH 8.0; for Ki: read-out: TcDHODH Ki^app.

Details of data set [2]: method as in earlier work. The note with it: cited from earlier work.

Read-outs that look alike come from different tables or passages of the source. Where only a bound is given, the exact number is not on record here.

The IC50 is the midpoint of a concentration-inhibition curve. A low value points to greater potency in that assay. Take `CC(C)(C)CCc1c(C(=O)O)[nH]c(=O)[nH]c1=O` [Compound 1]: in data set [1], the IC50 is at least 400 µM and the Ki is above 19.7 µM.

As usually defined, the pKa is the negative logarithm of the acid dissociation constant. Take `O=C(O)c1ccc2ccccc2c1` [2-naphthoic acid]: the pKa in data set [2] is given as 4.17.

In the case of `O=C(O)c1cc(=O)[nH]c(=O)[nH]1` [ORO, orotate, reference compound], the IC50 in data set [1] was 112 ± 21 µM. Moreover, the Ki in data set [1] (calculated from IC50 by Cheng-Prusoff equation, Km for dihydroorotate […]) was 5.51 µM.
